Source: patent US9649295B2, “Chemical inhibitors of soluble adenylyl cyclase (sAC)” (Cornell Research Foundation, Inc., priority 2004, dated 2017)

Key:
[1] = tested on: CREB phosphorylation in isolated nuclei; assay: CREB phosphorylation in isolated HeLa nuclei (P2), Western analysis; assay type: biochemical; conditions: for relative intensity of phospho-CREB band normalized to basal: basal 1 U, 1 mM 8-Br cAMP, 40 mM bicarbonate alone or plus 10 μM H-89 or 1 mM 8-Br-RpcAMPs
Description: The resuspended pellet and 60% OptiPrep iodixanol were mixed (30% OptiPrep final) and centrifuged at 10,000 g for 20 min. The supernatant was removed and the nuclei-enriched pellet (P2) was resuspended in TM-2 buffer without detergent.
Reactions were stopped by the addition of 20 μl of SDS sample buffer (CREB phosphorylation) or by being placed into a 100° C. heat block for 3 min (adenylyl cyclase).
(§1) For whole cell and isolated nuclei CREB phosphorylation assays, equal cell or nuclear equivalents were separated under reducing conditions using a 10% SDS-PAGE, transferred to a PVDF membrane, and probed for CREB (rabbit polyclonal antiserum; Chemicon, Temecula, Calif.) and phosphorylated CREB (rabbit polyclonal antiserum; Upstate Biotechnology, Temecula, Calif.). HRP-conjugated secondary antibodies were used, and bands were visualized using ECL. Image analysis software (model Fluorchem 8800; Alpha Innotech, San Leandro, Calif.) was used to quantitate Western results. Intensities of phospho-CREB bands were normalized to total CREB.

[2] = tested on: CREB phosphorylation in isolated nuclei; assay: phospho-CREB immunocytochemistry of isolated nuclei; assay type: biochemical; conditions: 10 min; 40 mM sodium bicarbonate, 1 mM 8-Br cAMP, 10 μM forskolin
Description: Cell Signaling Technologies) overnight at 4° C. Staining was visualized by incubation with goat anti-rabbit Alexa Fluor 488 (Molecular Probes) for 1 h at room temperature, treated with DAPI for 5 min, and washed and mounted with gelvatol/DABCO (Sigma-Aldrich). Fluorescent images were recorded by a digital camera (Hamamatsu, Bridgewater, N.J.) connected to an inverted epifluorescent microscope (Nikon, Melville, N.Y.). Images were taken at the same exposure time and gain, and all photographic manipulations were performed equally. Phospho-CREB-positive nuclei were quantified in multiple fields from each stained slide by a blinded experimenter. […] Nuclei were also treated with DAPI to differentiate intact nuclei from membrane ghosts. DAPI-positive nuclei were scored for phosho-CREB immunofluorescence. Nuclei with detectable staining (FIG. 6A, NaHCO3) were considered positive for CREB phosphorylation, whereas nuclei with no detectable staining (FIG. 6A, Basal) were counted as negative. Multiple microscopic fields were photographed for each condition, and data was combined from three to five separate experiments.

[3] = target: catalytic portion of the sAC-like adenylyl cyclase from Candida albicans (fragment JR3) (Candida albicans, UniProt A0A1D8PR83); assay: biochemical; conditions: read-out: EC50 for stimulation of adenylyl cyclase activity of JR3
Sequence of catalytic portion of the sAC-like adenylyl cyclase from Candida albicans (fragment JR3) (A0A1D8PR83 entry or part of it): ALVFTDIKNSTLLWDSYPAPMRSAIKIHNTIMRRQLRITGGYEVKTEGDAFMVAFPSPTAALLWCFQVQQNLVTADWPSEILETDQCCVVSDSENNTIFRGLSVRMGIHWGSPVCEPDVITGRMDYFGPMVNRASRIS
Source text: . FIG. 17A illustrates the bicarbonate dependence of the JR3 fragment; […];

CREB phosphorylation [4] = assay: time course of CREB phosphorylation in Huh7 cells; assay type: cell-based, human; conditions: 44 mM bicarbonate DME, 1 μM PGE2
Description: FIGS. 2A-B show the time course of CREB phosphorylation by sAC and tmAC. Huh7 cells were starved for 1 h for bicarbonate and CO2 and incubated in 44 mM of normal, bicarbonate-containing DME in 5% CO2 for the time indicated (FIG. 2A) or kept in normal media and treated with 1 μM PGE2 for the time indicated (FIG. 2B). Top panels in FIGS. 2A-B show Western blots using anti-phospho-CREB antisera with phosphorylated CREB (P-CREB) protein indicated; the bottom panels show Western blot using CREB-specific antisera with total CREB (CREB) protein indicated. Shown below the Western blots in FIGS. 2A-B are graphical representations of the intensities of phospho-CREB relative to CREB normalized to the 0 min time point (first lane).
All cell lines were grown in DME (44 mM sodium bicarbonate) supplemented with 10% FBS. […]
as §1, with “HRP-conjugated secondary antibodies were used, and bands were visualized using ECL.” left out, “Intensities of phospho-CREB bands were normalized to total CREB.” left out

CREB phosphorylation [5] = assay: CREB phosphorylation in COS7 cells; assay type: cell-based; conditions: 10 μM H89 pretreatment 10 min
Description: All cell lines were grown in DME (44 mM sodium bicarbonate) supplemented with 10% FBS. Where indicated, cells were transfected using Lipofectamine 2000 (Invitrogen, Carlsbad, Calif.) as per the manufacturer's instructions. Cells were incubated with DNA for 5 h in OPTI-MEM (Invitrogen), and then switched to normal media. Bicarbonate starvation was conducted by changing media to bicarbonate-free DME (44 mM Hepes) supplemented with 10% FBS for at least 1 h at 37° C. under ambient air conditions. Bicarbonate stimulation consisted of returning cells to normal bicarbonate-containing media and placing them in a 5% CO2 incubator. For PGE2 or forskolin stimulation, cells were grown in normal media under 5% CO2. Stimulation was accomplished by replacing media with normal media containing 1 μM PGE2 or 10 μM forskolin. […]
For phospho-CREB immunolocalization, cells or nuclei were fixed in 4% PFA for 30 min, permeabilized in 0.1% Triton X-100 for 15 min, blocked for at least 1 h in 3% BSA, and immunostained using phospho-CREB polyclonal antisera (1:500; Cell Signaling Technologies) overnight at 4° C. […] Fluorescent images were recorded by a digital camera (Hamamatsu, Bridgewater, N.J.) connected to an inverted epifluorescent microscope (Nikon, Melville, N.Y.). […] Phospho-CREB-positive nuclei were quantified in multiple fields from each stained slide by a blinded experimenter. […]

Compound | relative intensity of phospho-CREB band normalized to basal [1] [U] | increase in CREB phosphorylation ([1]; isolated nuclei, Western) [fold] | percentage of phospho-CREB-positive nuclei relative to basal [2] | EC50 [3] [µM] | time to detectable increase in phospho-CREB (CREB phosphorylation [4]) [min] | reduction of CREB phosphorylation induced by bicarbonate ([1]; isolated nuclei, 40 mM bicarbonate) [%] | effect on forskolin- or bicarbonate-induced phospho-CREB immunostaining (CREB phosphorylation [5])
O=C([O-])O.[Na+] [bicarbonate, sodium bicarbonate] | 27 | 27 | at least a twofold rise | ~200 | ≤ 2 |  | 
O=S(=O)(NCCNC/C=C/c1ccc(Br)cc1)c1cccc2cnccc12 [H89] | 13 |  |  |  |  | 50 | inhibited
